Counter-ions that a name gives are not always drawn.
Molecular target: T1, untagged HECT of NEDD4 wild-type (WT) (E3 ligase) (Homo sapiens, UniProt P46934)
T1 construct: untagged HECT of NEDD4 wild-type (WT) (E3 ligase); made in house
T1 sequence (P46934 519-900 isoform P46934-4 limits assumed): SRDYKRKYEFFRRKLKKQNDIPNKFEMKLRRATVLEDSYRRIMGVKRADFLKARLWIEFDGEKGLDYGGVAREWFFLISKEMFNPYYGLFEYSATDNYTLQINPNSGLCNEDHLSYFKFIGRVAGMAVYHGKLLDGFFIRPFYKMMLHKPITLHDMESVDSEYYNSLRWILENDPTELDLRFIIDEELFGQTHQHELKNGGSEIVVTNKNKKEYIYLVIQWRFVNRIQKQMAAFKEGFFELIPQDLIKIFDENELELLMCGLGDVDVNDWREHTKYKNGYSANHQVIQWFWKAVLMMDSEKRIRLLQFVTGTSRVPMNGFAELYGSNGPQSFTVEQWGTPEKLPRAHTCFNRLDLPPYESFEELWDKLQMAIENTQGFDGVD
Assay: In vitro ubiquitination assay TR-FRET based (self-ubiquitination of NEDD4)
Type: biochemical
Settings: at 11 μM; pre-incubated for 1 hour; AUC of 120 minutes kinetic; read-out: percentages of inhibition (NEDD4)
From the text: FIG. 1: TR-FRET kinetic assay performed with compound 12. […] Reactions were initiated with the addition of ATP. As labeled ubiquitin molecules become incorporated into chains they come into close proximity, resulting in energy transfer and increased signal to background detection. The activity of the enzyme is continuously and real time detected and it is expressed as % of signal/background during the time.
In order to quantitatively measure the self-ubiquitination process of the E3 HECT ligase NEDD4 the inventors employed a TR-FRET based assay. TR-FRET technology exploits the long-lasting emission of lanthanide fluorescence to interpose a short time-delay between FRET donor excitation and emission. This phenomenon enables to isolate real fluorescent signals from short-lived background emissions, thus reducing possible interference from compounds.
In the present study, elongation of the ubiqutin chain by NEDD4 is measured by adding bacterially expressed E1, His-tagged UBE2D3 (E2) and untagged HECT of NEDD4 wild-type (WT) (E3 ligase) (named in FIG. 1 as WT) enzymes to a mixture of Eu-cryptate ubiquitin, Cy5-ubiquitin and wild-type ubiquitin, combined in a ratio optimized for TR-FRET based conjugation (100×TRF-Ubiquitin Mix, SBB-TR0051). […] Bacterially expressed E1, His-tagged UBE2D3 (E2), untagged HECT NEDD4 (E3 ligase) WT and NEDD4 C/A enzymes were produced and purified as reported in E. Maspero et al. Methods Mol Biol. 1449:153-60 (2016).
Enzymatic incorporation of the labeled TRF-Ubiquitin mix into chains leads to an increase in fluorescence emission at 665 nm (emission of the acceptor Cy5-Ubiquitin, Emacceptor) and decrease at emission wavelength 620 nm (emission of the donor Eu-cryptate Ubiquitin, Emdonor).
The assay was performed in a 384-well plate format (Optiplate, Perkin Elmer, #6007290) on an automated liquid-handler (Hamilton STAR, Hamilton Robotics, Switzerland).
All compounds were dissolved in 100% DMSO and serially diluted in 96-well plates (from 100 μM to 0.005 μM).
Briefly, all reagents were thawed and kept on ice. A master mix containing E1, E2, E3 and TRF-Ubiquitin Mix (SBB-TR0051) diluted in the assay buffer (Tris-HCl pH 7.6 25 mM, NaCl 100 mM, MgCl2 5 mM and Tween 0.01%) is prepared and 50 μl/well is dispensed in a 384 well plate. 3 μl of compounds dissolved in DMSO in the above-indicated concentration range were added and pre-incubated for 1 hour. Final E1, E2 and E3 concentrations in the assay buffer (Tris-HCl pH 7.6 25 mM, NaCl 100 mM, MgCl2 5 mM and Tween 0.01%) were 30, 350 and 50 nanomolars, respectively. The reaction was initiated with the addition of ATP (22 μl of 2 mM ATP, JenaBioscience, NU-1010) and was allowed to proceed for 120 minutes, measuring fluorescence emission at 665 nm and 620 nm in real-time on an EnSpire microplate reader (Perkin Elmer).
Kinetic raw data were analyzed by Area Under the Curve (AUC) method using Prism GraphPad software.
% signal/background corresponds to the following equation: (Experimental signal−Background signal)/Background signal×100%
Experimental signal corresponds to the signal obtained by the enzymatic reaction in presence of the vehicle (DMSO) and/or the different compound concentrations. Background signal corresponds to the signal obtained by the enzymatic reaction in absence of ATP.
The relative potency of the compounds was evaluated by dose-response curves following the enzymatic reaction of HECT NEDD4 WT in real time for 120 minutes.
Percentage of inhibition is then determined by the equation: % inhibition=100×[1−(X)/(MAX)],
where MAX correspond to AUC of the vehicle (DMSO) treated enzyme, and X corresponds to the AUC of the compound treated enzyme.

SMILES | inhibition at 11 µM [%]
CCOC(=O)/C=C/CNCCCN1c2cc(Cl)ccc2CCc2cnn(C)c21 [Compound 30, Ethyl (E)-4-{[3-(8-chloro-1-methyl-4,5-dihydropyrazolo-[3,4-b][1]-benzazepin-10(1H)-yl)propyl]amino}but-2-enoate maleate] | > 50
CCOC(=O)/C=C/CNCCCN1c2cc(Cl)ccc2CCc2cn(C)nc21 [Compound 31] | < 30
CCOC(=O)/C=C/CNCCCN1c2cc(Cl)ccc2CCc2cncnc21 [Compound 32, Ethyl (E)-4-{[3-(9-chloro-5,6-dihydro-11H-pyrimido[4,5-b][1]-benzazepin-11-yl)propyl]amino}but-2-enoate fumarate] | > 50
CCOC(=O)/C=C/CNCCC(=O)N1c2ccccc2CCc2ccc(Cl)cc21 [Compound 33, Ethyl (E)-4-{[3-(3-chloro-10,11-dihydro-5H-dibenzo[b,f]azepin-5-yl)-3-oxo-propyl]amino}but-2-enoate maleate] | < 30
CCOC(=O)/C=C/CNCC(O)CN1c2ccccc2CCc2ccc(Cl)cc21 (centres unmarked) [Compound 34, Ethyl (E)-4-{[2-hydroxy-3-(3-chloro-10,11-dihydro-5H-dibenzo[b,f]azepin-5-yl)]propylamino} but-2-enoate] | > 50
CCOC(=O)/C=C/CNCCCC(=O)N1c2ccccc2CCc2ccc(Cl)cc21 [Compound 38, Ethyl (E)-4-{[4-(3-chloro-10,11-dihydro-5H-dibenzo[b,f]azepin-5-yl)-4-oxo-butyl]amino}but-2-enoate maleate] | > 50
CCOC(=O)/C=C/CNCCCCN1c2ccc(O)cc2CCc2ccc(Cl)cc21 [Compound 39, Ethyl (E)-4-[4-(7-Chloro-2-hydroxy-10,11-dihydro-dibenzo[b,f]azepin-5-yl)-butylamino]-but-2-enoate maleate] | > 50
CCOC(=O)/C=C/CNCCCCN1c2ccccc2CCc2cc(O)c(Cl)cc21 [Compound 40, Ethyl (E)-4-[4-(3-Chloro-2-hydroxy-10,11-dihydro-dibenzo[b,f]azepin-5-yl)-butylamino]-but-2-enoate maleate] | > 50
CCOC(=O)/C=C/CNCCCCN1c2cc(Cl)ccc2CCc2cnn(C)c21 [Compound 43, Ethyl (E)-4-{[4-(8-chloro-1-methyl-4,5-dihydropyrazolo-[3,4-b][1]-benzazepin-10(1H)-yl)butyl]amino}but-2-enoate maleate] | > 50
CN(C/C=C/C(=O)CCc1ccccc1)CCCCN1c2ccccc2CCc2ccc(Cl)cc21 [Compound 53, (E)-6-[4-(3-chloro-10,11-dihydro-5H-dibenzo[b,f]azepin-5-yl)butyl-methyl-amino]-1-phenyl-hex-4-en-3-one maleate] | > 50

The remaining lines, values ahead:

inhibition at 11 µM [%] | SMILES
> 50 | CCOC(=O)/C=C/CNCCCN1c2ccccc2C(=O)N(C)c2ccc(Cl)cc21 [Compound 28, Ethyl (E)-4-{[3-(7-chloro-10-methyl-11-oxo-10,11-dihydro-5H-dibenzo[b,e][1,4]diazepin-5-yl)propyl]amino}but-2-enoate maleate]
> 50 | CCOC(=O)/C=C/CNCCCN1c2cc(Cl)ccc2COc2ccccc21 [Compound 35, Ethyl (E)-4-{3-[3-chlorodibenzo[b,e][1,4]oxazepin-5(11H)-yl]propylamino}but-2-enoate maleate]
> 50 | CCOC(=O)/C=C/CNCCCCN1c2cc(Cl)ccc2COc2ccccc21 [Compound 36, Ethyl (E)-4-{4-[3-chlorodibenzo[b,e][1,4]oxazepin-5(11H)-yl]butylamino}but-2-enoate maleate]
> 50 | CCOC(=O)/C=C/CNCCCCN1c2ccccc2COc2ccc(Cl)cc21 [Compound 37, Ethyl (E)-4-{4-[7-chlorodibenzo[b,e][1,4]oxazepin-5(11H)-yl]butylamino}but-2-enoate maleate]
> 50 | CCOC(=O)/C=C/CNCCCCN1c2cc(Cl)ccc2NC(=O)c2ccccc21 [Compound 41, Ethyl (E)-4-{[4-(7-chloro-11-oxo-10,11-dihydro-5H-dibenzo[b,e][1,4]diazepin-5-yl)butyl]amino}but-2-enoate maleate]
> 50 | CCOC(=O)/C=C/CNCCCCN1c2ccccc2C(=O)N(CCc2ccccc2)c2ccc(Cl)cc21 [Compound 44, Ethyl (E)-4-{[4-(7-chloro-10-(2-phenylethyl)-11-oxo-10,11-dihydro-5H-dibenzo[b,e][1,4]diazepin-5-yl)butyl]amino}but-2-enoate maleate]
> 50 | CCOC(=O)/C=C/CNCCCCN1c2cc(Cl)ccc2C(=O)N(CCO)c2ccccc21 [Compound 46, Ethyl (E)-4-({4-[3-chloro-10-(2-hydroxyethyl)-11-oxo-10,11-dihydro-5H-dibenzo[b,e][1,4]diazepin-5-yl]butyl}amino)but-2-enoate maleate]
> 50 | CCOC(=O)/C=C/CNCCCN1c2cc(Cl)ccc2C(=O)N(CCO)c2ccccc21 [Compound 47, Ethyl (E)-4-({3-[3-chloro-10-(2-hydroxyethyl)-11-oxo-10,11-dihydro-5H-dibenzo[b,e][1,4]diazepin-5-yl]propyl}amino)but-2-enoate maleate]
> 50 | CCOC(=O)/C=C/CNCCCCN1c2cc(Cl)ccc2C(=O)N(CCCO)c2ccccc21 [Compound 48, Ethyl (E)-4-({4-[3-chloro-10-(3-hydroxypropyl)-11-oxo-10,11-dihydro-5H-dibenzo[b,e][1,4]diazepin-5-yl]butyl}amino)but-2-enoate maleate]
> 50 | CCOC(=O)/C=C/CNCCCN1c2cc(Cl)ccc2C(=O)N(CCCO)c2ccccc21 [Compound 49, Ethyl (E)-4-({3-[3-chloro-10-(3-hydroxypropyl)-11-oxo-10,11-dihydro-5H-dibenzo[b,e][1,4]diazepin-5-yl]propyl}amino)but-2-enoate maleate]
> 50 | CCOC(=O)/C=C/CNCCCCN1c2ccccc2C(=O)N(CCO)c2ccc(Cl)cc21 [Compound 50, Ethyl (E)-4-({4-[7-chloro-10-(2-hydroxyethyl)-11-oxo-10,11-dihydro-5H-dibenzo[b,e][1,4]diazepin-5-yl]butyl}amino)but-2-enoate maleate]
> 50 | CCOC(=O)/C=C/CNCCCCN1c2ccccc2C(=O)N(CCCO)c2ccc(Cl)cc21 [Compound 51, Ethyl (E)-4-({4-[7-chloro-10-(3-hydroxypropyl)-11-oxo-10,11-dihydro-5H-dibenzo[b,e][1,4]diazepin-5-yl]butyl}amino)but-2-enoate maleate]
30 to 50 | CCOC(=O)/C=C/CNCCCN1c2ccccc2C(=O)N(CCCO)c2ccc(Cl)cc21 [Compound 52, Ethyl (E)-4-({3-[7-chloro-10-(3-hydroxypropyl)-11-oxo-10,11-dihydro-5H-dibenzo[b,e][1,4]diazepin-5-yl]propyl}amino)but-2-enoate maleate]
